Data taken from patent US20240226115A1, “AXL INHIBITOR COMPOUNDS” (ARCUS BIOSCIENCES, INC., priority 2021, published 2024).

The compounds below were run against T1, Axl (Homo sapiens, UniProt P30530) (assay: Axl NanoBRET intracellular kinase assay (Cell Binding)). Details: HEK-293 cells transfected with Axl-NanoLuc fusion vector; displacement of K-5 NanoBRET tracer.
T1 sequence (P30530 26-894): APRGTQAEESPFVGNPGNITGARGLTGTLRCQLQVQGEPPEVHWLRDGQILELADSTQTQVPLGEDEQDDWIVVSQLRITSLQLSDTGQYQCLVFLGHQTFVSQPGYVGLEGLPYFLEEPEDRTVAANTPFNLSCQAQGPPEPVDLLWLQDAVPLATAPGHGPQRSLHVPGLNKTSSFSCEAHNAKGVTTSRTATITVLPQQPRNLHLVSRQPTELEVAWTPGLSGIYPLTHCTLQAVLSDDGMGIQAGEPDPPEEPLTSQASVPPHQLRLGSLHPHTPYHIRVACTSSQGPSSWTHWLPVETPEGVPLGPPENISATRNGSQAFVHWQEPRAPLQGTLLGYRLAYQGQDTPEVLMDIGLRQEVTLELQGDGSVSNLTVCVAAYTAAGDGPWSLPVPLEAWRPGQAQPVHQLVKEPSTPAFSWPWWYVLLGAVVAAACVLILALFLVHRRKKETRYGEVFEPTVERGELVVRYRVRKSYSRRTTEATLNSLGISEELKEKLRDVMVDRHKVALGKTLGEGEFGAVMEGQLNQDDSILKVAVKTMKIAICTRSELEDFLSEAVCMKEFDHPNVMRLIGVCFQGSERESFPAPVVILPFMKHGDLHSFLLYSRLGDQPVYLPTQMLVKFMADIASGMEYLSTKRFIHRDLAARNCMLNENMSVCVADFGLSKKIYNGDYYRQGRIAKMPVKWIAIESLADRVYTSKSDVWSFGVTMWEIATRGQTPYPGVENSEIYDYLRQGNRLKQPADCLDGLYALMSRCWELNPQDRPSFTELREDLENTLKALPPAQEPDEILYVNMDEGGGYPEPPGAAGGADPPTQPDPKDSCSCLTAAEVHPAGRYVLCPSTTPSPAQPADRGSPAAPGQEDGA
Set-up: host or cells: HEK-293
Method in brief: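 In intact HEK-293 cells transiently expressing NanoLuc-tagged Axl, compounds compete with the K-5 tracer (0.35 μM, 2 h, 37 °C) after a 1 h preincubation. Readout is the 610/450 nm emission ratio.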

Row | SMILES | IC50
1 | C[C@@H]1CNC(=O)c2ccc(-c3n[nH]c4ncc(-c5ccc6c(c5)CCC(N5CCC[C@H]5C)CC6)cc34)cc2O1 (stereo partly drawn) [Example 59, (2R)-2-Methyl-8-(5-{7-[(2R)-2-methylpyrrolidin-1-yl]-6,7,8,9-tetrahydro-5H-benzo[7]annulen-2-yl}-1H-pyrazolo[3,4-b]pyridin-3-yl)-2,3,4,5-tetrahydro-1,4-benzoxazepin-5-one] | < 100 nM
2 | C[C@@H]1CCCN1C1CCc2ccc(-c3cnc4[nH]nc(-c5ccc6c(c5F)OCCNC6=O)c4c3)cc2CC1 (stereo partly drawn) [Example 60, 9-Fluoro-8-(5-{7-[(2R)-2-methylpyrrolidin-1-yl]-6,7,8,9-tetrahydro-5H-benzo[7]annulen-2-yl}-1H-pyrazolo[3,4-b]pyridin-3-yl)-2,3,4,5-tetrahydro-1,4-benzoxazepin-5-one] | < 100 nM
3 | C[C@@H]1CCCN1C1CCc2ccc(-c3cnc4[nH]nc(-c5cc6c(cc5F)C(=O)NCCO6)c4c3)cc2CC1 (stereo partly drawn) [Example 61, 7-Fluoro-8-(5-{7-[(2R)-2-methylpyrrolidin-1-yl]-6,7,8,9-tetrahydro-5H-benzo[7]annulen-2-yl}-1H-pyrazolo[3,4-b]pyridin-3-yl)-2,3,4,5-tetrahydro-1,4-benzoxazepin-5-one] | < 100 nM

Other lines, results leading:

Row | IC50 | SMILES
4 | < 100 nM | C[C@@H]1CCCN1C1CCc2ccc(-c3cnc4[nH]nc(-c5ccc6c(c5)O[C@@H](C)CNC6=O)c4c3)cc2CC1 (stereo partly drawn) [Example 62, (2S)-2-Methyl-8-(5-{7-[(2R)-2-methylpyrrolidin-1-yl]-6,7,8,9-tetrahydro-5H-benzo[7]annulen-2-yl}-1H-pyrazolo[3,4-b]pyridin-3-yl)-2,3,4,5-tetrahydro-1,4-benzoxazepin-5-one]
5 | 100 to 1000 nM | O=C1NCCOc2cc(-c3n[nH]c4ncc(-c5ccc6c(n5)CCC(N5CCCC5)CC6)cc34)ccc21 (centres unmarked) [Example 63, 8-{5-[7-(Pyrrolidin-1-yl)-5H,6H,7H,8H,9H-cyclohepta[b]pyridin-2-yl]-1H-pyrazolo[3,4-b]pyridin-3-yl}-2,3,4,5-tetrahydro-1,4-benzoxazepin-5-one]
6 | < 100 nM | Cc1cc2c(cc1-c1cnc3[nH]nc(-c4ccc5c(c4)OCCNC5=O)c3c1)CCC(N1CCC[C@H]1C)CC2 (stereo partly drawn) [Example 64, 8-(5-{3-Methyl-7-[(2R)-2-methylpyrrolidin-1-yl]-6,7,8,9-tetrahydro-5H-benzo[7]annulen-2-yl}-1H-pyrazolo[3,4-b]pyridin-3-yl)-2,3,4,5-tetrahydro-1,4-benzoxazepin-5-one]
7 | < 100 nM | C[C@@H]1CCCN1C1CCc2cc(-c3cnc4[nH]nc(-c5ccc6c(c5)OCCNC6=O)c4c3)cc(Cl)c2CC1 (stereo partly drawn) [Example 65, 8-(5-{4-Chloro-7-[(2R)-2-methylpyrrolidin-1-yl]-6,7,8,9-tetrahydro-5H-benzo[7]annulen-2-yl}-1H-pyrazolo[3,4-b]pyridin-3-yl)-2,3,4,5-tetrahydro-1,4-benzoxazepin-5-one]
8 | < 100 nM | C[C@@H]1CCCN1C1CCc2ccc(-c3cnc4[nH]nc(-c5ccc6c(c5)OCCNS6(=O)=O)c4c3)cc2CC1 (stereo partly drawn) [Example 66, 7-(5-{7-[(2R)-2-Methylpyrrolidin-1-yl]-6,7,8,9-tetrahydro-5H-benzo[7]annulen-2-yl}-1H-pyrazolo[3,4-b]pyridin-3-yl)-3,4-dihydro-2H-5,12,2-benzoxathiazepine-1,1-dione]
